Experimental data from publication PMC12668310, “High‐Throughput Synthesis and Screening of a Cyanimide Library Identifies Selective Inhibitors of ISG15‐Specific Protease mUSP18” (Angewandte Chemie (International Ed. in English), 2025).
Read-outs that look alike come from different tables or passages of the source.

Biological target: T1, mUSP18 (Mus musculus, UniProt Q9WTV6)
T1 construct: (46-368); His-tag (N); made in house
T1 sequence (Q9WTV6 46-368): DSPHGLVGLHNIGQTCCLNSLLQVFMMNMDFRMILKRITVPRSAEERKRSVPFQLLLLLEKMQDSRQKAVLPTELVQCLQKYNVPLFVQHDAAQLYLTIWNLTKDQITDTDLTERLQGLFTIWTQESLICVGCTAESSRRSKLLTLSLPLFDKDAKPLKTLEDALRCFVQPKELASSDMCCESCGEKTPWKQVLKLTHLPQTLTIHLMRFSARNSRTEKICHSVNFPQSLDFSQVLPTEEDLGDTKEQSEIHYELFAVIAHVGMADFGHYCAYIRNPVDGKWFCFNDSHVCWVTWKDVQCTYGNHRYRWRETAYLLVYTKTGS
Experiment: High-throughput screening, ISG15ct-RhoMP, single dose 1.25 µM
Assay type: biochemical, murine
Conditions: mUSP18 %inhibition

[1] = carboxylic acid (CA) building block alone, read-out: %inh CA only
[2] = carboxylic acid (CA) with coupling reagents DIC/HOBT, read-out: %inh CA + DIC/HOBT

Row | Compound | inhibition at 1.25 µM [1] | inhibition at 1.25 µM [2] | %inh CA only (carboxylic acid (CA) building block alone) | %inh CA + DIC/HOBT (carboxylic acid (CA) with coupling reagents DIC/HOBT)
1 | O=C(O)c1ccn(-c2ccc(C(F)(F)F)cn2)n1 [CA319] | -2.14% | -1.07% | – | –
2 | Cn1ccnc1CN1CCC(C(=O)O)CC1 [CA348] | -0.25% | -2.62% | – | –
3 | O=C(O)c1ccc(N2CCCCCC2)nc1 [CA344] | 0.4% | 47% | – | –
4 | Cc1nn(C2CCOCC2)c(C)c1C(=O)O [CA219] | 7.18% | -0.2% | – | –
5 | O=C(O)c1snnc1-c1ccc(Br)cc1 [CA126] | 9.01% | 10.8% | – | –
6 | O=C(O)C1(c2cccs2)CC1 [CA222] | 3.38% | 3.8% | – | –
7 | Cn1nc(CC(=O)O)cc1C1CC1 [CA325] | -0.57% | 0.73% | – | –
8 | Cc1ccccc1COc1cccc(CC(=O)O)c1 [CA288] | 3.53% | -1.94% | – | –
9 | O=C(O)CC1(Cn2cnnn2)CCCCC1 [CA317] | 3.86% | -1.32% | – | –
10 | O=C(O)c1ccc(-c2nnco2)cc1 [CA383] | -4.57% | -8.55% | – | –
11 | CCCC(=O)O [CA007] | -4.83% | -14.7% | – | –
12 | O=C(O)C1Cc2ccccc21 (centres unmarked) [CA263] | 9.79% | 2.89% | – | –
13 | Cc1ccc(Br)c(C(=O)O)c1 [CA033] | – | – | -2.06% | -9.49%
14 | O=C(O)c1ccc(Oc2cccc(Cl)c2Cl)nn1 [CA144] | 10.8% | 12.9% | – | –
15 | O=C(O)C1CCN(c2ncccn2)CC1 [CA089] | -4.93% | -12.3% | – | –
16 | O=C(NCc1ccc(C(=O)O)cc1)OCC1c2ccccc2-c2ccccc21 [CA061] | 13.4% | -3.66% | – | –
17 | CC(=O)Oc1ccccc1C(=O)O [CA071] | -4.57% | -15.7% | – | –
18 | O=C(O)c1cccc(-c2ncon2)c1 [CA463] | -1.44% | -3.17% | – | –
19 | CNS(=O)(=O)c1ccc(-c2ccc(Cl)c(Cl)c2)c(C(=O)O)c1 [CA387] | -2.91% | -4.58% | – | –
20 | O=C(O)c1ncn(-c2ccccc2)n1 [CA437] | -3.12% | 0.58% | – | –

Row | Compound | inhibition at 1.25 µM [1] | inhibition at 1.25 µM [2] | %inh CA only (carboxylic acid (CA) building block alone) | %inh CA + DIC/HOBT (carboxylic acid (CA) with coupling reagents DIC/HOBT)
21 | O=C(O)C(F)(F)n1cc(-c2ccccc2)nn1 [CA262] | 8.22% | 3.17% | – | –
22 | O=C(O)c1cncc(N2CCCC2)n1 [CA266] | 8.54% | 4.99% | – | –
23 | O=C(O)c1cnn(-c2ccc(Br)cc2)c1 [CA303] | -3.17% | 14.7% | – | –
24 | N#CCC(=O)O [CA070] | -5.36% | -14.2% | – | –
25 | Cn1nc(C(=O)O)cc1-c1cccnc1 [CA256] | -0.67% | 11.7% | – | –
26 | O=C(O)[1C@@H]1CCCO[1C@H]1c1ccccc1 [CA370] | 2.12% | 9.77% | – | –
27 | O=C(O)c1ncoc1-c1cccs1 [CA094] | 14.4% | 10.3% | – | –
28 | O=C(O)c1cnoc1-c1cccs1 [CA104] | 12.4% | 34% | – | –
29 | O=C(O)c1csc(CCc2ccccc2)n1 [CA382] | -3.25% | -8.03% | – | –
30 | COCC1CCN(c2ccc(C(=O)O)cc2)C1 (centres unmarked) [CA313] | 2.9% | 43.3% | – | –
31 | O=C(O)c1cnc(-c2ccco2)s1 [CA188] | 10.2% | -0.34% | – | –
32 | Cc1nn(-c2cccnc2)nc1C(=O)O [CA314] | 5.77% | -5.31% | – | –
33 | O=C(O)C1CCN(C(=O)c2ccccn2)CC1 [CA242] | 6.36% | 2.43% | – | –
34 | O=C(O)c1csc(-c2ccncc2)n1 [CA298] | -1.96% | -1.91% | – | –
35 | Cc1nc(-c2ncccn2)sc1C(=O)O [CA159] | 2.85% | 8.46% | – | –
36 | O=C(O)c1cnn(-c2cccc(Br)c2)c1 [CA240] | 7.83% | 6.83% | – | –
37 | O=C(O)c1cccc(COc2cccc(F)c2)c1 [CA194] | 9.72% | 3.17% | – | –
38 | O=C(O)C(Br)c1ccccc1 (centres unmarked) [CA024] | -2.41% | -9.9% | – | –
39 | O=C(O)C1CC2C=CC1O2 (centres unmarked) [CA358] | 5.65% | -4.55% | – | –
40 | Cc1nc(-c2cc(C)n(CCC(=O)O)c2C)cs1 [CA280] | 11.4% | 14.1% | – | –
